From patent publication EP0705258B1, “AZOLYL-CYCLIC AMINE DERIVATIVES WITH IMMUNOMODULATORY ACTIVITY” (Knoll AG, priority 1993, dated 1995)
Counter-ions that a name gives are not always drawn.

Columns and labels:
[1] = tested on: tumour necrosis factor-α (TNF-α); assay: Mouse Tumour Necrosis Factor Test (Test B), mouse endotoxin shock model, serum TNF-α by ELISA; format: in vivo, BALB/c mice; conditions: Mus musculus; minimum effective oral dose giving significant reduction in serum TNF-α of ≥35%; dosed 2 h before LPS i.p.; ≤ = active at dose given but not tested at lower doses; read-out: MTNF:MED
Description: Preferred compounds of the present invention are active in an in-vivo test which determines the ability of the compounds to inhibit the release of tumour necrosis factor-α (TNF-α) in a mouse endotoxin shock model (Test B). This model is similar to that described by Zuckerman and Bendele (1989), Infection and Immunity 57 (10): p3009-3013.
Each compound of formula I was combined with a carrier of a solution of 1.5% v/v sorbitan esters under the trade name Tween 80 and 0.25% v/v cellosize in sterile water (100 µl) and was administered orally to a group of four BALB/c mice. The concentration of compound was such as to provide dosages selected from 100, 30, 10, 3, 1, 0.1 and 0.03 mg/kg. Two hours after such oral administration, lipopolysaccharide (LPS) (E. coli 0127:B8) (100 µg) in sterile water (0.2 ml) was administered intraperitoneally to the test mice.
A control group of eight BALB/c mice was treated in a similar manner as the test group except that no test compound was included with the carrier.
One hour after LPS administration the mice were killed and blood was collected by cardiac puncture. The blood was incubated at 20°C for 2 hours and the serum was separated from the clotted blood following centrifugation. Serum tumour necrosis factor-α (TNF-α) levels were assayed by an enzyme-linked immunosorbent assay (ELISA) and the concentration of TNF-α in each of the drug-treated groups was compared with the control group by one-way analysis of variance followed by a multiple t-test.
The ELISA was carried out by coating a 96-well vinyl assay plate (Costar) overnight at 4°C with 50 µl per well of 2 µg/ml hamster anti-mouse TNF monoclonal antibody in 0.1M sodium hydrogen carbonate buffer at pH 8.2. After washing the plate with phosphate buffered saline (PBS) containing 0.05% v/v sorbitan esters under the trade name Tween 20 (wash buffer), a blocking/dilution buffer (10% sheep serum in PBS containing 0.1% v/v sorbitan esters under the trade name Tween 20 (200 µl)) was aliquoted to each well and incubated at 37°C for 0.5 hours. After aspirating the blocking buffer, the serum samples and pure TNF (as a standard) diluted in blocking/dilution buffer, were added to the wells and incubated at 37°C for 2 hours. After washing with the wash buffer, a polyclonal rabbit anti-mouse TNF-α antibody in blocking/dilution buffer (100 µl of a 1 in 10,000 dilution) was added and incubated for a further 1.5 hours at 37°C. After further washes, anti-rabbit IgG peroxidase conjugate (100 µl of a 1 in 4000 dilution) was added and incubated at 37°C for 0.5 hours. After further washing, the substrate solution (100 µl per well of 0.1 mg/ml 3,3', 5,5'-tetramethylbenzidine dihydrochloride in 0.1M phosphate citrate buffer, pH 5.0, to which 2 µl of 30% hydrogen peroxide per 10 ml was added just before use) was added and the colour allowed to develop. The reaction was stopped by the addition of 1M sulphuric acid (25 µl) and the optical density read in a multichannel spectrophotometer at 450 nm. The mean TNF-α concentration was determined by comparison with the standard curve and the mean TNF-α concentration for each group compared with that produced by the control group. Drug treatments which cause a statistically significant reduction in TNF-α concentration of ≥35% at a single dose at 100 mg/kg or less were considered active.

[2] = tested on: Zymosan Stimulated Macrophages; assay: Inhibition of Arachidonic Acid Release from Zymosan Stimulated Macrophages (Test D); format: cell-based, MF1 mice; conditions: Mus musculus, Macrophage, tested at 100, 50, 20, 10, 5 and 1 µM
Procedure: Female MF1 mice (weighing 20 to 25 g) were killed using a rising concentration of CO2. The mice were laid on their backs and the abdomens wiped with 70% alcohol. The skin was pulled back, exposing the peritoneal wall. Medium A (5 ml) (see below) was injected into the peritoneal cavity of each mouse followed by approximately 1 ml of air using a 20 ml syringe and a 21G x 40 mm needle in order to form a suspension of macrophage cells. The medium and cells were then removed using a 19G x 40 mm needle. The resulting suspension was returned to a sterile beaker kept on ice. The extracts from all the mice were pooled and this pooled cell suspension was counted using a Coulter counter and adjusted to a final cell count of 1 - 1.3 x 10^6 cells/ml prior to labelling with [^3H]-arachidonic acid. Typically five mice provided sufficient cells for each multiwell plate. Sufficient [^3H]arachidonic acid in ethanol to give a final concentration of 1.6 µCi/ml (equivalent to 40 µCi/plate) was blown to dryness under nitrogen. The arachidonic acid was then resuspended in 1 or 2 ml of the cell suspension which was then mixed with the remainder of the cell suspension in a centrifuge bottle. The labelled cell suspension was then plated out into sterile plastic 96 flat-bottomed well plates (250 µl per well) and incubated overnight at 37°C in a moist atmosphere of 5% CO2, 95% air. The following day, non-adherent cells were removed by washing 3 times with sterile phosphate buffered saline (PBS). The adherent peritoneal macrophages were then cultured for a further 24 hours in the presence or absence of drugs, in medium B (see below) at 37° in a 5% CO2 atmosphere in order to measure the effects of drugs on the spontaneous release of arachidonic acid in the absence of stimulus. After this incubation, supernatants were removed to give media 1 and stored in sealed multi-well plates at 4°C prior to scintillation counting. Drugs which potentiated spontaneous release of arachidonic acid (125% of controls) were deemed to be toxic at the concentration at which this phenomenon occurred. The supernatants were replaced by fresh medium C containing fresh drug and a stimulus. Three drugs were tested at six concentrations (100, 50, 20, 10, 5 and 1 µM) in replicates of four on each plate. The other wells contained controls consisting of a positive control (e.g. dexamethasone), medium (B) only and medium C only. Incubation was then continued for a further 5 hours, whereupon the supernatants were collected to give media 2 and the adherent cells washed with PBS. The cells were then lysed with 100 µl of 0.1% TRITON® X100 in a 0.1% solution of bovine serum albumin in 0.9% saline and mechanically disrupted to give cell lysates. These supernatants (media 2) and cell lysates (Cells) were also stored in sealed multi-well plates at 4°C prior to scintillation counting. 200 µl aliquots of media, or 100 µl aliquots of cells were counted using 2 ml of OPTIPHASE "HIGH SAFE" (Trademark of LKB) as scintillant. […] The value for the arachidonic acid release in the absence of stimulus (spontaneous, cpm of media 2) from cells which had been exposed to neither stimulus nor drug was subtracted from all equivalent values (cpm media 2, stimulated with or without drug) to give the net stimulated release. The percentage inhibition of arachidonic acid release caused by a drug may then be calculated using the following equation. % Inhibition = 100 -(net stimulated release in presence of drug x 100)/(net stimulated release in absence of drug) [formula] […] The zymosan stimulant was prepared as follows:- zymosan (200mg) (supplied by Sigma) was added to PBS (20ml). The mixture was boiled for 30 minutes and the volume restored to 20ml with water. The zymosan was harvested by centrifugation at 500Xg for 5 minutes, washed twice by resuspension in PBS (10ml) and centrifugation. After the final separation, the zymosan was resuspended in 20ml PBS and stored as lml aliquots at -20°C. […]

[3] = tested on: lymphocyte proliferation (BALB/c responder and mitomycin C treated C57BL/6 stimulator spleen cells); assay: Mixed Lymphocyte Reaction (Test A), one-way MLR, tritiated thymidine incorporation; format: cell-based, mice; conditions: Mus musculus; concentration causing 50% inhibition of lymphocyte proliferation, by linear interpolation; ≤ = active at this concentration but not tested at lower doses
Procedure: A mixed lymphocyte reaction (MLR) occurs when lymphocytes from two genetically dissimilar individuals, or inbred strains of mice are cultured together. An MLR results in the activation and proliferation of lymphocytes, which is measured by the incorporation of radiolabelled thymidine into the cellular DNA synthesised during cell division. A 'one-way' MLR is used to determine the immunosuppressive activity of test compounds in vitro. In this reaction one population of spleen cells serves as the stimulator cells and is treated with mitomycin C to prevent cell division. Spleen cells from a second allogeneic population (responder cells) are untreated and when mixed with the stimulator cells are able to undergo division which is measured. The degree of proliferation is measured in the presence and absence of test compound to assess the immunosuppressive activity of the compound.
The techniques for carrying out lymphocyte proliferation assays including MLRs are well known, eg Bradley, pages 156-166, in Mishell and Shiigi, Eds. Selected Methods in Cellular Immunology (Freeman, San Francisco, 1980); and Battisto et al, methods in Enzymology 1987; 150: 83-91. Various slight modifications of these techniques are in use and that used herein is described in Gibb, Webber and Bowen, J Immunological Methods 1985; 81: 107-113.
Cell suspensions obtained from the spleens of female BALB/c and C57BL/6 strain mice of between 6 and 9 weeks of age were used as sources of responder and stimulator cells respectively. The mice were killed using a rising concentration of CO2 and the spleens removed aseptically and teased using a scalpel and forceps to produce a single cell suspension in Hanks balanced salt solution (HBSS). The suspensions were filtered through cell strainers (Falcon), sedimented by centrifugation and resuspended in Tris-buffered ammonium chloride pH 7.2 (medium D) to lyse the erythrocytes. The cells were sedimented again and washed twice in HBSS before resuspending in complete RPMI 1640 tissue culture medium (medium E). The C57BL/6 cells were resuspended to 9 mls per spleen and a solution of mitomycin C at 400 µg/ml in medium E added to give a final concentration of 40 µg/ml. After incubation of the C57BL/6 cells at 37°C for 30 minutes in an atmosphere of 5% CO2 and 95% air, the cells were sedimented and washed 3 times in medium E. Both cell suspensions were diluted in medium E to 5 x 10^6 cells/ml. 100µl of each of the responder and stimulator cell suspensions were aliquoted into the wells of 96 well flat bottom microtitre plates containing 50 µl of test compound at an appropriate dilution (initially 50 µM diluted in medium E from a stock solution at 100 mM in dimethyl sulphoxide) giving a final test compound concentration of 10 µM (final dilution). Compounds active at this concentration were tested at further final dilution of 1 µM, 0.1 µM and 0.01 µM and 0.001 µM to determine the concentration of test compound which causes 50% inhibition of the immune response (IC50). After four days of culture at 37°C in a humidified atmosphere of 5% CO2 and 95% air, 1 µCi of tritiated thymidine in 20 µl of medium E was added to each well and the plates incubated for a further 24 hours. Cells were then harvested onto Inotech G7 glass fibre filter mats using an Inotech cell harvester. The filters were transferred to vials to which 2 ml of Packard Emulsifier-Safe scintillation fluid was added and the radioactivity from the incorporated thymidine was counted in a Packard liquid scintillation counter. The counts per minute (CPM) reflect the degree of lymphocyte proliferation. The data were analysed to determine the percentage inhibition of lymphocyte proliferation by the test compound. […]

Row | IC50 [2] [µM] | SMILES | minimal effective dose [1] [mg/kg] | IC50 [3] [µM]
1 | 52 | O=C(CCCN1CCC(CCn2ccnc2)CC1)c1ccccc1 [Example 88, 4-[2-(Imidazol-1-yl)ethyl]-1-(4-oxo-4-phenylbutyl)piperidine] | ≤ 30 | 
2 | 34 | c1ccc(CCCC2CCN(CCn3ccnc3)CC2)cc1 [Example 96, 1-[2-(imidazol-1-yl)ethyl]-4-(3-phenylpropyl)piperidine, dihydrochloride monohydrate] |  | 0.01
3 | 58 | c1ccc(CCCN2CCCC(CCn3ccnc3)C2)cc1 (stereo not drawn) [Example 99, 3-[2-(Imidazol-l-yl)ethyl]-1-(3-phenylpropyl)piperidine] | 100 | 
4 | 27 | c1ccc(CCCN2CCCCC2CCn2ccnc2)cc1 (stereo not drawn) [Example 100, 2-[2-(Imidazol-1-yl)ethyl]-1-(3-phenylpropyl)piperidine] | 100 | 
5 | 18 | c1ccc(CCCN2CCCC(Cn3ccnc3)C2)cc1 (stereo not drawn) [Example 101, 3-Imidazol-1-ylmethyl-1-(3-phenylpropyl)piperidine] | 100 | 
6 | 22 | CC(C)c1nccn1CCC1CCN(CCCc2ccccc2)CC1 [Example 106, 4-[2-(2-Isopropylimidazol-1-yl)ethyl]-1-(3-phenylpropyl)piperidine] |  | 0.5
7 | 22 | CCc1nccn1CCC1CCN(CCCc2ccccc2)CC1 [Example 107, 4-[2-(2-Ethylimidazol-1-yl)ethyl]-1-(3-phenylpropyl)piperidine] |  | ≤ 0.01
8 | 20 | CCCc1nccn1CCC1CCN(CCCc2ccccc2)CC1 [Example 110, 1-(3-Phenylpropyl)-4-[2-(2-propylimidazol-1-yl)ethyl]piperidine] |  | 0.2
9 | 100 | c1ccc(CCCN2CCC(CCn3nccn3)CC2)cc1 [Example 120, 1-(3-Phenylpropyl)-4-[2-(2H-1,2,3-triazol-2-yl)ethyl]piperidine] |  | 4.2
10 |  | c1ccc(CCCN2CCC(CCn3ncnn3)CC2)cc1 [Example 121, 1-(3-Phenylpropyl)-4-[2-(2H-tetrazol-2-yl)ethyl]piperidine] | 100 | ≤ 1
11 |  | c1ccc2c(c1)CCC(CN1CCC(CCn3ccnc3)CC1)C2 (stereo not drawn) [Example 125, 4-[2-(Imidazol-1-yl)ethyl]-1-(1,2,3,4-tetrahydronaphth-2-ylmethyl)piperidine] | 30 | 2.2
12 |  | CC(CCN1CCC(CCn2ccnc2)CC1)c1ccccc1 (stereo not drawn) [Example 126, 4-[2-(Imidazol-1-yl)ethyl]-1-(3-phenylbutyl)piperidine] | ≤ 100 | 3.7
